Assays:
Test in all cases: relative viability (nuclei count vs DMSO), 5 days (fraction); higher = more cells survive
Elesclomol = compound: CN(NC(=O)CC(=O)NN(C)C(=S)c1ccccc1)C(=S)c1ccccc1 [Elesclomol]
Summary of the method: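 Viability is treated-well nuclei as a fraction of vehicle-well nuclei, reported as the median across plates. Before counting, lung cancer cell lines were kept overnight at 37 °C in 1536-well plates, pinned with five √10-spaced library-drug doses on vehicle-anchored plates, and left 5 days without medium change, then fixed, permeabilised and Hoechst-stained in one step, imaged at 4× and counted by MetaXpress. A plate passed only if control CV was below 25% and at least one doubling occurred.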

Elesclomol + Lapatinib = compound: CN(NC(=O)CC(=O)NN(C)C(=S)c1ccccc1)C(=S)c1ccccc1 [Elesclomol] + CS(=O)(=O)CCNCc1ccc(-c2ccc3ncnc(Nc4ccc(OCc5cccc(F)c5)c(Cl)c4)c3c2)o1 [Lapatinib] (partner 2 µM)
Summary of the method: (§1)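 Lung cancer cell lines in 1536-well plates got either a single drug or a fixed anchor-drug dose together with five library-drug doses (not always all listed) in √10 steps, by pin tool, on the day after seeding. Nuclei were counted after 5 days, and relative viability is the treated-to-vehicle ratio of nuclei counts. Values are medians of duplicate plates.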

Elesclomol + Vorinostat = compound: CN(NC(=O)CC(=O)NN(C)C(=S)c1ccccc1)C(=S)c1ccccc1 [Elesclomol] + O=C(CCCCCCC(=O)Nc1ccccc1)NO [Vorinostat] (partner 1 µM)
Summary of the method: as §1

Elesclomol + AZD7762 = compound: CN(NC(=O)CC(=O)NN(C)C(=S)c1ccccc1)C(=S)c1ccccc1 [Elesclomol] + NC(=O)Nc1cc(-c2cccc(F)c2)sc1C(=O)N[C@H]1CCCNC1 [AZD7762] (partner 0.2 µM)
Summary of the method: as §1

Elesclomol + Trametinib = compound: CN(NC(=O)CC(=O)NN(C)C(=S)c1ccccc1)C(=S)c1ccccc1 [Elesclomol] + CC(=O)Nc1cccc(-n2c(=O)n(C3CC3)c(=O)c3c(Nc4ccc(I)cc4F)n(C)c(=O)c(C)c32)c1 [Trametinib] (partner 0.02 µM)
Summary of the method: as §1

Row | Cell Line | relative viability (Elesclomol; 0.003162 µM) | relative viability (Elesclomol; 0.01 µM) | relative viability (Elesclomol; 0.03162 µM) | relative viability (Elesclomol; 0.1 µM) | relative viability (Elesclomol + Lapatinib; first compound 0.003162 µM) | relative viability (Elesclomol + Lapatinib; first compound 0.01 µM) | relative viability (Elesclomol + Lapatinib; first compound 0.03162 µM) | relative viability (Elesclomol + Lapatinib; first compound 0.1 µM) | relative viability (Elesclomol + Vorinostat; first compound 0.003162 µM) | relative viability (Elesclomol + Vorinostat; first compound 0.01 µM) | relative viability (Elesclomol + Vorinostat; first compound 0.03162 µM) | relative viability (Elesclomol + Vorinostat; first compound 0.1 µM) | relative viability (Elesclomol + AZD7762; first compound 0.003162 µM) | relative viability (Elesclomol + AZD7762; first compound 0.01 µM) | relative viability (Elesclomol + AZD7762; first compound 0.03162 µM) | relative viability (Elesclomol + AZD7762; first compound 0.1 µM) | relative viability (Elesclomol + Trametinib; first compound 0.003162 µM) | relative viability (Elesclomol + Trametinib; first compound 0.01 µM) | relative viability (Elesclomol + Trametinib; first compound 0.03162 µM) | relative viability (Elesclomol + Trametinib; first compound 0.1 µM)
1 | NCI-H1975 | 0.988 | 0.732 | 0.278 | 0.181 | 0.84 | 0.571 | 0.164 | 0.1 | 0.765 | 0.648 | 0.183 | 0.12 | 0.779 | 0.406 | 0.292 | 0.212 | 0.356 | 0.229 | 0.14 | 0.125
2 | NCI-H647 | 1 | 0.617 | 0.377 | 0.062 | 1.08 | 0.765 | 0.267 | 0.0231 | 0.24 | 0.337 | 0.133 | 0.0479 | 0.539 | 0.253 | 0.0623 | 0.0307 | 0.553 | 0.347 | 0.235 | 0.148
3 | A-427 | 0.963 | 0.554 | 0.529 | 0.18 | 0.933 | 1.02 | 1.05 | 0.52 | 0.823 | 0.755 | 0.192 | 0.15 | 0.756 | 0.527 | 0.188 | 0.151 | 0.761 | 0.411 | 0.236 | 0.183
4 | LXF-289 | 1.03 | 0.956 | 0.95 | 0.772 | 0.925 | 0.881 | 0.876 | 0.677 | 0.79 | 0.779 | 0.706 | 0.483 | 1.01 | 1.04 | 0.974 | 0.509 | 0.676 | 0.65 | 0.663 | 0.423
5 | NCI-H727 | 1.04 | 0.699 | 0.494 | 0.301 | 0.591 | 0.365 | 0.165 | 0.0475 | 1.14 | 1.18 | 1.03 | 0.641 | 0.569 | 0.683 | 0.572 | 0.346 | 0.412 | 0.362 | 0.394 | 0.376
6 | NCI-H1437 | 0.879 | 0.635 | 0.504 | 0.47 | 0.637 | 0.45 | 0.346 | 0.265 | 0.74 | 0.411 | 0.322 | 0.334 | 0.938 | 0.644 | 0.547 | 0.594 | 0.504 | 0.424 | 0.339 | 0.275
7 | RERF-LC-KJ | 0.816 | 0.493 | 0.316 | 0.311 | 0.909 | 0.756 | 0.398 | 0.299 | 0.445 | 0.406 | 0.473 | 0.256 | 1 | 0.868 | 0.741 | 0.297 | 0.753 | 0.536 | 0.572 | 0.28
8 | HCC-44 | 0.968 | 0.935 | 0.831 | 0.764 | 0.95 | 0.941 | 1.03 | 0.727 | 1.09 | 1.16 | 1.16 | 1.08 | 1 | 0.942 | 0.996 | 1 | 1.14 | 1.09 | 1.08 | 1.05
9 | EPLC-272H | 0.876 | 0.514 | 0.534 | 0.128 | 0.873 | – | 1.04 | 0.119 | 0.178 | 0.0788 | 0.133 | 0.129 | 0.255 | 0.159 | 0.11 | 0.104 | 0.264 | 0.111 | 0.09 | 0.119
10 | NCI-H358 | 0.752 | 0.225 | 0.215 | 0.196 | 0.272 | 0.244 | 0.209 | 0.184 | 0.62 | 0.0764 | 0.0906 | 0.0819 | 0.305 | 0.182 | 0.161 | 0.102 | 0.107 | 0.103 | 0.0862 | 0.0746
11 | NCI-H596 | 0.983 | 0.842 | 0.865 | 0.243 | 1.04 | 1.11 | 1.03 | 0.381 | 0.632 | 0.577 | 0.485 | 0.219 | 1.19 | 0.943 | 0.927 | 0.252 | 0.798 | 0.865 | 0.368 | 0.237
12 | NCI-H322M | 0.893 | 0.29 | 0.363 | 0.266 | 0.563 | – | 0.624 | 0.399 | 0.72 | 0.42 | 0.289 | 0.191 | 0.484 | 0.411 | 0.259 | 0.161 | 0.497 | 0.423 | 0.298 | 0.217

— the supplement of paper PMC10307832
